In patent publication US9669034B2, “4-aryl-N-phenyl-1,3,5-triazin-2-amines containing a sulfoximine group” (BAYER INTELLECTUAL PROPERTY GMBH, priority 2011, dated 2017):
≈ marks a conversion by molar mass, not a printed value. Where two headings read alike, the source gives them in different places.

Key:
CDK9/CycT1 = CDK9/CycT1 (Homo sapiens (Human), UniProt P50750); assay: CDK9/CycT1 kinase assay (TR-FRET); assay type: biochemical; settings: Method 1
Outline: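 Recombinant full-length His-tagged human CDK9/CycT1, insect-cell expressed and Ni-NTA purified. Substrate is a biotinylated peptide (biotin-Ttds-linked). Kinase inhibition is read out by TR-FRET.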

CDK2/CycE = CDK2/CycE (Homo sapiens (Human), UniProt P24941); assay: CDK2/CycE kinase assay (TR-FRET); assay type: biochemical; settings: Method 2
Outline: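 Enzyme was GST-tagged human CDK2 with GST-tagged human CycE, expressed in Sf9 insect cells and glutathione-affinity purified. The kinase reaction used a biotinylated peptide substrate, with inhibition measured by TR-FRET.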

[1] = tested on: HeLa human cervical tumour cells; assay: Proliferation assay (crystal violet), HeLa; assay type: cell-based; settings: Method 3, read-out: Inhibition of HeLa cell proliferation, IC50
Outline: (§1)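 Cells were seeded at 3000/well (NCI-H460, HeLa), 5000/well (HeLa-MaTu-ADR) or 1500/well (Caco-2) in medium with 10% FCS. After 24 h, compounds ([…], 0.5% DMSO) were added for 4 days. Crystal violet absorbance at 595 nm was normalized to a zero-point plate and untreated cells; IC50 came from a 4-parameter fit.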

[2] = Equilibrium shake flask solubility assay; assay type: physicochemical; settings: pH 6.5, equilibrium shake flask method; for solubility thermodynamic at 24 h: phosphate buffer, pH 6.5, aqueous buffer, thermodynamic from solid, water
Experimental: 4. Equilibrium Shake Flask Solubility Assay:
The thermodynamic solubility of compounds in water was determined by an equilibrium shake flask method (see for example: E. H. Kerns, L. Di: Drug-like Properties: Concepts, Structure Design and Methods, 276-286, Burlington, Mass., Academic Press, 2008). A saturated solution of the drug was prepared and the solution was mixed for 24 h to ensure that equilibrium was reached. The solution was centrifuged to remove the insoluble fraction and the concentration of the compound in solution was determined using a standard calibration curve.
To prepare the sample, 2 mg solid compound was weighed in a 4 mL glass vial. 1 mL phosphate buffer pH 6.5 was added. The suspension was stirred for 24 hrs at room temperature. The solution was centrifuged afterwards. To prepare the sample for the standard calibration, 2 mg solid sample was dissolved in 30 mL acetonitrile. After sonification the solution was diluted with water to 50 mL. Sample and standards were quantified by HPLC with UV-detection. For each sample two injection volumes (5 and 50 μl) in triplicates were made. Three injection volumes (5 μl, 10 μl and 20 μl) were made for the standard.
Chromatographic Conditions:
The areas of sample- and standard injections as well as the calculation of the solubility value (in mg/l) were determined by using HPLC software (Waters Empower 2 FR).

[3] = tested on: HeLa-MaTu-ADR, multidrug-resistant human cervical carcinoma cells; assay: Proliferation assay (crystal violet), HeLa-MaTu-ADR; assay type: cell-based; settings: Homo sapiens, HeLa, Method 3, read-out: Inhibition of HeLa/MaTu/ADR cell proliferation, IC50
Outline: as §1

[4] = tested on: NCI-H460, human non-small cell lung carcinoma cells; assay: Proliferation assay (crystal violet), NCI-H460; assay type: cell-based; settings: Homo sapiens, NCI-H460, NCI-H460 cells, Method 3; read-out: Inhibition of NCI-H460 cell proliferation, IC50
Outline: as §1

[5] = tested on: DU145, hormone-independent human prostate carcinoma cells; assay: Proliferation assay (crystal violet), DU145; assay type: cell-based; settings: Homo sapiens, DU-145, DU145 cells, Method 3; read-out: Inhibition of DU145 cell proliferation, IC50
Outline: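 DU145 hormone-independent human prostate carcinoma cells (ATCC HTB-81) were seeded at 5000 cells/well in 96-well plates in 200 μL growth medium with 10% fetal calf serum. After 24 hours, a zero-point plate was stained. The other plates got fresh medium containing test substances ([…], 0.5% dimethylsulfoxide) and were incubated for 4 days.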

[6] = tested on: Caco-2 human colorectal carcinoma; assay: Proliferation assay (crystal violet), Caco-2; assay type: cell-based; settings: Homo sapiens, Caco-2, Caco-2 cells, Method 3; read-out: Inhibition of Caco-2 cell proliferation, IC50
Outline: as §1

[7] = tested on: B16F10 mouse melanoma cells; assay: Proliferation assay (crystal violet), B16F10; assay type: cell-based; settings: Mus musculus, B16-F10, B16F10 cells, Method 3; read-out: Inhibition of B16F10 cell proliferation, IC50
Outline: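 B16F10 mouse melanoma cells (ATCC CRL-6475) were seeded at 1000 cells/well into 96-well plates in 200 μL growth medium containing 10% fetal calf serum. After 24 hours, one zero-point plate was stained with crystal violet. The remaining plates got fresh medium with test substances (0 M and […], 0.5% dimethylsulfoxide) and were incubated for 4 days.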

[8] = molecular target: human carbonic anhydrase-1 (Homo sapiens (Human), UniProt P00915); assay: Carbonic anhydrase assay, carbonic anhydrase-1; assay type: biochemical; settings: read-out: Inhibition of Carbonic anhydrase-1: IC50
Chain of human carbonic anhydrase-1 (P00915 whole entry): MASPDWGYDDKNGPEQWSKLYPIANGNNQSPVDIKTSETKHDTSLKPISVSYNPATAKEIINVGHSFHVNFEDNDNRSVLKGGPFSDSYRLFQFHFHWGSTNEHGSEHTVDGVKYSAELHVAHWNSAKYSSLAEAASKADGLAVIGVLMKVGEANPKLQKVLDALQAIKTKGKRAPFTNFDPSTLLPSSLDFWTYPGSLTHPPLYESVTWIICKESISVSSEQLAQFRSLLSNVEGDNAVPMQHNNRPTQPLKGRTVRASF
From the text: (§2) 5. Carbonic Anhydrase Assay
(§3) The principle of the assay is based on the hydrolysis of 4-nitrophenyl acetate by carbonic anhydrases (Pocker & Stone, Biochemistry, 1967, 6, 668), with subsequent photometric determination of the dye product 4-nitrophenolate at 400 nm by means of a 96-channel spectral photometer.
(§4) 2 microL of the test compounds, dissolved in DMSO (100-fold final concentration), in a concentration range of 0.03-10 micromol/L (final), was pipetted as quadruplicates into the wells of a 96-hole microtiter plate. Wells that contained the solvent without test compounds were used as reference values (1. Wells without carbonic anhydrase for correction of the non-enzymatic hydrolysis of the substrate, and 2. Wells with carbonic anhydrase for determining the activity of the non-inhibited enzyme).
(§5) 188 microL of assay buffer (10 millimol/L of Tris/HCl, pH 7.4, 80 millimol/L of NaCl), with or without 3 units/well of carbonic anhydrase-1 [=human carbonic anhydrase-1 (Sigma, #C4396)] in order to determine carbonic anhydrase-1 inhibition or 3 units/well of carbonic anhydrase-2 [=human carbonic anhydrase-2 (Sigma, #C6165)] for measuring carbonic anhydrase-2 inhibition, was pipetted into the wells of the microtiter plate. […] IC50 values were determined by means of a 4 parameter fit.

[9] = molecular target: human carbonic anhydrase-2 (Homo sapiens (Human), UniProt P00918); assay: Carbonic anhydrase assay, carbonic anhydrase-2; assay type: biochemical; settings: read-out: Inhibition of Carbonic anhydrase-2: IC50
From the text: as §2, §3, §4, §5

Chain of CDK9/CycT1 (P50750 whole entry): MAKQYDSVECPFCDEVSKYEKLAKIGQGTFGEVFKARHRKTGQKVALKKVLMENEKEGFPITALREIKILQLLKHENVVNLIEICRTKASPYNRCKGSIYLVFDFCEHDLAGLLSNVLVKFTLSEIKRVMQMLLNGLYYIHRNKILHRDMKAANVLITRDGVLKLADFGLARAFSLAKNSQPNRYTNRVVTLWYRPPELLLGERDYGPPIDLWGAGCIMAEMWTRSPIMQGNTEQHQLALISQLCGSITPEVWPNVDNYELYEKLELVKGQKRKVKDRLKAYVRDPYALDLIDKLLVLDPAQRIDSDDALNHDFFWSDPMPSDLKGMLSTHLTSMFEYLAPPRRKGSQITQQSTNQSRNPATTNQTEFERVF
Chain of CDK9/CycT1 (O60563 whole entry partner): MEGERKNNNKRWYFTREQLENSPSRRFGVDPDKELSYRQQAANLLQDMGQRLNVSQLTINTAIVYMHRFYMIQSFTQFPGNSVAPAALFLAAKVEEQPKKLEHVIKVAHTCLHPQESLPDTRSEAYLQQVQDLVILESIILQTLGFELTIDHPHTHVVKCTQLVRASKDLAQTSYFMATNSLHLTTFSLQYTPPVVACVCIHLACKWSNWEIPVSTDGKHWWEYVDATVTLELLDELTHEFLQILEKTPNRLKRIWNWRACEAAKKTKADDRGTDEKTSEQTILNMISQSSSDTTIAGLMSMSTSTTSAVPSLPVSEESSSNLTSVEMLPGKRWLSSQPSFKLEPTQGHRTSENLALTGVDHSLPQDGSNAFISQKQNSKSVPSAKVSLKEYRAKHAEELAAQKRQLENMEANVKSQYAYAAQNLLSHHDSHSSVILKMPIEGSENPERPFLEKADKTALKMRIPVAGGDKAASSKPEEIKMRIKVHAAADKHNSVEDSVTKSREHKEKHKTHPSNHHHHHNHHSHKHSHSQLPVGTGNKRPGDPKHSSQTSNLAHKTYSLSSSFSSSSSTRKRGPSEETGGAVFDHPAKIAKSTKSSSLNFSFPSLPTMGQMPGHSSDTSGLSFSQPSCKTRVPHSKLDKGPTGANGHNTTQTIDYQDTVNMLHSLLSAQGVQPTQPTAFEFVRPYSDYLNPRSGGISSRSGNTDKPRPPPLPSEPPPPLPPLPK

| SMILES | IC50 (CDK9/CycT1) | IC50 (CDK2/CycE) | IC50 ([1]; Homo sapiens, HeLa) | solubility thermodynamic at 24 h [2] | IC50 [3] | IC50 [4] | IC50 [5] | IC50 [6] | IC50 [7] | IC50 [1] | Thermodynamic solubility in water at pH 6.5 [2] | IC50 [8] | IC50 [9] |
| --- | --- | --- | --- | --- | --- | --- | --- | --- | --- | --- | --- | --- | --- |
| COc1cc(F)c(F)cc1-c1ncnc(Nc2cccc(CS(C)(=N)=O)c2)n1 (racemic) [Example 10, (rac)-4-(4,5-Difluoro-2-methoxyphenyl)-N-{3-[(S-methylsulfonimidoyl)methyl]phenyl}-1,3,5-triazin-2-amine] | 28 nM | 1300 nM | 1100 nM | 130 µg/mL (≈ 321 µM) |  |  |  |  |  |  |  |  |  |
| CC#CCOc1cc(F)ccc1-c1ncnc(Nc2cccc(CS(C)(=N)=O)c2)n1 (racemic) [Example 73, (rac)-4-[2-(But-2-yn-1-yloxy)-4-fluorophenyl]-N-{3-[(S-methylsulfonimidoyl)methyl]phenyl}-1,3,5-triazin-2-amine] | 8 nM | 820 nM | 240 nM | 1220 µg/mL (≈ 2870 µM) | 280 nM | 260 nM | 200 nM | 300 nM | 150 nM |  |  |  |  |
| C#CCOc1cc(F)ccc1-c1ncnc(Nc2cccc(CS(C)(=N)=O)c2)n1 (racemic) [Example 77, (rac)-4-[4-Fluoro-2-(prop-2-yn-1-yloxy)phenyl]-N-{3-[(S-methylsulfonimidoyl)methyl]phenyl}-1,3,5-triazin-2-amine] | 15 nM | 1600 nM | 470 nM | 256 µg/mL (≈ 622 µM) | 630 nM | 560 nM | 480 nM | 300 nM | 520 nM |  |  |  |  |
| CCOc1cc(F)ccc1-c1ncnc(Nc2cccc(CS(C)(=N)=O)c2)n1 (racemic) [Example 88, (rac)-4-(2-Ethoxy-4-fluorophenyl)-N-{3-[(S-methylsulfonimidoyl)methyl]phenyl}-1,3,5-triazin-2-amine] | 11 nM | 1300 nM | 380 nM | 884 µg/mL (≈ 2200 µM) | 700 nM | 890 nM | 730 nM | 780 nM | 810 nM |  |  |  |  |
| CCCOc1cc(F)ccc1-c1ncnc(Nc2cccc(CS(C)(=N)=O)c2)n1 (racemic) [Example 91, (rac)-4-(4-Fluoro-2-propoxyphenyl)-N-{3-[(S-methylsulfonimidoyl)methyl]phenyl}-1,3,5-triazin-2-amine] | 29 nM | 2300 nM | 1100 nM | 104 µg/mL (≈ 250 µM) |  |  |  |  |  |  |  |  |  |
| CS(=N)(=O)Cc1cccc(Nc2ncnc(-c3cccc4c3OCCO4)n2)c1 (single isomer, unassigned) [Example 39, 4-(2,3-Dihydro-1,4-benzodioxin-5-yl)-N-{3-[(S-methylsulfonimidoyl)methyl]phenyl}-1,3,5-triazin-2-amine] | 29 nM | 1500 nM | 1100 nM | 819 µg/mL (≈ 2060 µM) |  |  |  |  |  |  |  |  |  |
| CS(=N)(=O)Cc1cccc(Nc2ncnc(-c3cccc4c3OCCO4)n2)c1 (single isomer, unassigned) [Example 40, 4-(2,3-Dihydro-1,4-benzodioxin-5-yl)-N-{3-[(S-methylsulfonimidoyl)methyl]phenyl}-1,3,5-triazin-2-amine] | 25 nM | 1800 nM |  |  |  |  |  |  |  | 1100 nM | 865 mg/l |  |  |
| COc1cc(F)ccc1-c1ncnc(Nc2cccc(CS(C)(=O)=NC#N)c2)n1 (single isomer, unassigned) [Example 49, [(3-{[4-(4-fluoro-2-methoxyphenyl)-1,3,5-triazin-2-yl]amino}benzyl)(methyl)oxido-λ^6-sulfanylidene]cyanamide] | 7 nM | 650 nM |  | 88 µg/mL (≈ 213 µM) |  |  |  |  |  |  |  |  |  |
| COc1cc(F)ccc1-c1ncnc(Nc2cccc(CS(C)(=O)=NC#N)c2)n1 (single isomer, unassigned) [Example 50, [(3-{[4-(4-fluoro-2-methoxyphenyl)-1,3,5-triazin-2-yl]amino}benzyl)(methyl)oxido-λ^6-sulfanylidene]cyanamide] | 7 nM | 430 nM | 260 nM |  | 190 nM | 310 nM | 140 nM | 350 nM | 250 nM |  | 126 mg/l |  |  |
| COc1cc(F)ccc1-c1ncnc(Nc2cccc(CS(C)(=N)=O)c2)n1 (single isomer, unassigned; (+)) [Example 4, (+)-4-(4-Fluoro-2-methoxyphenyl)-N-{3-[(S-methylsulfonimidoyl)methyl]phenyl}-1,3,5-triazin-2-amine] |  |  |  |  |  |  |  |  |  |  |  | > 10000 nM | > 10000 nM |
| CNC(=O)N=S(C)(=O)Cc1cccc(Nc2ncnc(-c3ccc(F)cc3OC)n2)c1 (single isomer, unassigned; (+)) [Example 17, (+)-1-[(3-{[4-(4-Fluoro-2-methoxyphenyl)-1,3,5-triazin-2-yl]amino}benzyl)(methyl)oxido-λ^6-sulfanylidene]-3-methylurea] | 14 nM | 1200 nM |  |  | 600 nM | 540 nM | 580 nM | 800 nM | 410 nM | 580 nM | 429 mg/l |  |  |
| COc1cc(F)ccc1-c1ncnc(Nc2cccc(CS(C)(=N)=O)c2)n1 (single isomer, unassigned; (-)) [Example 3, (−)-4-(4-Fluoro-2-methoxyphenyl)-N-{3-[(S-methylsulfonimidoyl)methyl]phenyl}-1,3,5-triazin-2-amine] |  |  |  | 601 µg/mL (≈ 1550 µM) |  |  |  |  |  |  |  | > 10000 nM | > 10000 nM |
| CNC(=O)N=S(C)(=O)Cc1cccc(Nc2ncnc(-c3ccc(F)cc3OC)n2)c1 (single isomer, unassigned; (-)) [Example 16, (−)-1-[(3-{[4-(4-Fluoro-2-methoxyphenyl)-1,3,5-triazin-2-yl]amino}benzyl)(methyl)oxido-λ^6-sulfanylidene]-3-methylurea] | 19 nM | 1100 nM | 950 nM | 323 µg/mL (≈ 727 µM) |  |  |  |  |  |  |  |  |  |
